Laboratory results from the NIST ThermoML archive (doi:10.1021/je900355h).
± gives the expanded uncertainty stated by the source.

Details: Crystal; visual observation

F[P-](F)(F)(F)(F)F.F[P-](F)(F)(F)(F)F.c1cc[n+](CCCCC[n+]2ccccc2)cc1 [1,1'-(1,5-pentanediyl)bis-pyridinium hexafluorophosphate]
Normal melting temperature: 198.40 ± 1.2 °C
